Source: paper PMC3892053, “Pharmacokinetic/pharmacodynamic modeling for the determination of a cimicoxib dosing regimen in the dog” (BMC Veterinary Research, 2013)
Converted amounts (≈) assume the structure as drawn. Read-outs that look alike come from different tables or passages of the source.

Tested on: kaolin-induced paw inflammation
Experiment: PK/PD modelling (indirect response models) of kaolin paw inflammation endpoints
Format: in vivo, dog
Settings: for EC50 at 2 mg/kg / IC50 at 2 mg/kg: po; for EC50 at 2 mg/kg: read-out: EC50, body temperature
Experimental: Pharmacokinetic and PK/PD modeling were performed by least-squares regression analysis using WinNonlin Professional software (WinNonlin® software, version 4.0.1, Pharsight Corporation, Mountain View, Ca, USA). For PK analysis, individual plasma cimicoxib concentrations were fitted to polyexponential equations. The data points were weighted by the inverse of the squared-fitted value. The number of exponential (2 or 3) terms needed to obtain the best fit for each data set was determined by the Akaike’s information criteria and by inspecting the plot of residuals. A biexponential equation corresponding to a mono-compartmental model for extravascular administration with a lag-time was selected (Equation 1).
As the effect cimicoxib on the local temperature and paw oedema after inflammation were present but lower than the other effects, these endpoints were not used for the PK/PD analysis. […] Finally, four endpoints were considered as suitable for the PK/PD analysis aiming at modelling the relationship between cimicoxib plasma concentrations and its antipyretic and anti-inflammatory effects, namely: body temperature (antipyretic effect), creeping speed, vertical force of the paw and clinical lameness score (anti-inflammatory effects).
The selected PK/PD models were of the class of the indirect response models as proposed by Dayneka. In these models, the measured response (R) is assumed to result from factors controlling either the development (Kin) or the dissipation (Kout) of the response according to Equation 3.
where dR/dt is the rate of change of the response over time, Kin represents the zero-order rate constant for production of the response and Kout the first-order rate constant for loss of the response. The time development of measured response was modeled by a sigmoid-Emax (maximum stimulatory effect) or sigmoid-Imax (maximum inhibition effect) function (Hill models) that can be exerted either on Kin or Kout. […] The effect of cimicoxib on the central temperature was based on a model assuming that during the inflammation phase, thermogenesis is increased (increase in Kin) while thermolysis is reduced (reduction in Kout) until a new balance for central temperature is reached. The antipyretic effect of an NSAID consisted of an increase in thermolysis (increase of Kout) enabling the central temperature to return to its control values, according to Equation 4:
(4) dR/dT=Kin-Kout×1+Emax×C^n/EC50^n+C^n×R
For the creeping test consisting of crossing the tunnel more or less rapidly, an empirical model postulating that the dog’s speed (m.s^-1) is the result of a balance between its motivation to move forward (Kin) and a braking effect (Kout) associated with the severity of inflammation with a lower Kout in control conditions than during inflammation. During inflammation, pain increases the braking effect (i.e. increase Kout) and decreases the speed to cross the tunnel. The anti-inflammatory effect of cimicoxib consisted in reducing the pain (by decreasing Kout), which in turn increased the speed to cross the tunnel as described by Equation 5:
(5) dR/dT=Kin-Kout×1-Imax×C^n/IC50^n+C^n×R
For the vertical force measured with the force plate apparatus normalized by the weight of the dog (without units), Kin represents the ground reaction forces in control resting conditions and Kout represents the factors prompting the withdrawal of limb from the ground in the case of inflammation due to pain i.e. that Kout is increased in the case of inflammation. Thus, the anti-inflammatory effect of cimicoxib consisted in a reduction of pain (decrease of Kout) and the same model as for the creeping speed under the tunnel was used (see Equation 5).
During inflammation, Kin is increased and the effect of cimicoxib was modelled using a concentration-dependent inhibition of Kin, according to Equation 6:
(6) dR/dT=Kin×1-C^n/IC50^n+C^n-Kout×R

[1] = plasma concentration, oral 2 mg/kg, PM dogs, mean and range, 2 mg/kg

SMILES: COc1ccc(-c2c(Cl)ncn2-c2ccc(S(N)(=O)=O)cc2)cc1F [cimicoxib]
- EC50 (Canis lupus familiaris, abstract, value matches EM dogs, read-out: plasma concentration corresponding to half the maximum of the indirect effect, body temperature): 0.193 µg/mL (≈ 0.505 µM)
- IC50 (Canis lupus familiaris, abstract, value matches EM dogs, read-out: plasma concentration corresponding to half the maximum of the indirect effect, creeping speed): 0.239 µg/mL (≈ 0.626 µM)
- IC50 (Canis lupus familiaris, abstract, value matches EM dogs, read-out: plasma concentration corresponding to half the maximum of the indirect effect, ground reaction vertical force): 0.161 µg/mL (≈ 0.422 µM)
- IC50 (Canis lupus familiaris, abstract, value matches EM dogs, read-out: plasma concentration corresponding to half the maximum of the indirect effect, lameness score): 0.284 µg/mL (≈ 0.744 µM)
- EC50 at 2 mg/kg (Canis lupus familiaris, plasma concentration, oral 2 mg/kg, EM dogs, mean and range): 0.193 µg/mL (≈ 0.506 µM)
- IC50 at 2 mg/kg (Canis lupus familiaris, plasma concentration, oral 2 mg/kg, EM dogs, mean and range, read-out: IC50, creeping speed): 0.239 µg/mL (≈ 0.627 µM)
- IC50 at 2 mg/kg (Canis lupus familiaris, plasma concentration, oral 2 mg/kg, EM dogs, mean and range, read-out: IC50, lameness score): 0.284 µg/mL (≈ 0.745 µM)
- IC50 at 2 mg/kg (Canis lupus familiaris, plasma concentration, oral 2 mg/kg, EM dogs, mean and range, read-out: IC50, vertical force): 0.161 µg/mL (≈ 0.421 µM)
- EC50 at 2 mg/kg (Canis lupus familiaris, plasma concentration, oral 2 mg/kg, PM dogs, mean and range): 0.473 µg/mL (≈ 1.24 µM)
- IC50 at 2 mg/kg (Canis lupus familiaris, plasma concentration, oral 2 mg/kg, PM dogs, mean and range, read-out: IC50, creeping speed): 0.345 µg/mL (≈ 0.902 µM)
- IC50 at 2 mg/kg (Canis lupus familiaris, plasma concentration, oral 2 mg/kg, PM dogs, mean and range, read-out: IC50, lameness score): 0.786 µg/mL (≈ 2.06 µM)
- IC50 at 2 mg/kg (Canis lupus familiaris, plasma concentration, oral 2 mg/kg, PM dogs, mean and range, read-out: IC50, vertical force): 0.325 µg/mL (≈ 0.851 µM)
- Emax, body temperature (EM dogs, mean and range): 0.04 [0.03, 0.06] no unit
- Imax, creeping speed (EM dogs, mean and range): 0.71 [0.38, 1.00] no unit
- Imax, vertical force (EM dogs, mean and range): 0.98 [0.93, 1.00] no unit
- Kin, body temperature (EM dogs, mean and range): 41.30 [20.76, 84.13] °C.h^-1
- Kin, creeping speed (EM dogs, mean and range): 0.90 [0.15, 2.71] m.s^-1.h^-1
- Kin, lameness score (EM dogs, mean and range): 5.34 [1.17, 16.87] score.h^-1
- Kin, vertical force (EM dogs, mean and range): 0.09 [0.06, 0.10] normalised force.h^-1
- Kout, body temperature (EM dogs, mean and range): 1.04 [0.53, 2.10] h^-1
- Kout, creeping speed (EM dogs, mean and range): 0.95 [0.24, 2.02] h^-1
- Kout, lameness score (EM dogs, mean and range): 1.08 [0.22, 3.54] h^-1
- Kout, vertical force (EM dogs, mean and range): 7.40 [3.21, 10.00] h^-1
- Emax, body temperature (PM dogs, mean and range): 0.04 [0.03, 0.04] no unit
- Imax, creeping speed (PM dogs, mean and range): 0.70 [0.44, 0.87] no unit
- Imax, vertical force (PM dogs, mean and range): 0.97 [0.95, 0.99] no unit
- Kin, body temperature (PM dogs, mean and range): 45.84 [42.76, 49.19] °C.h^-1
- Kin, creeping speed (PM dogs, mean and range): 0.76 [0.36, 0.97] m.s^-1.h^-1
- Kin, lameness score (PM dogs, mean and range): 2.57 [0.70, 4.96] score.h^-1
- Kin, vertical force (PM dogs, mean and range): 0.09 [0.07, 0.10] normalised force.h^-1
- Kout, body temperature (PM dogs, mean and range): 1.17 [1.09, 1.25] h^-1
- Kout, creeping speed (PM dogs, mean and range): 1.07 [0.80, 1.47] h^-1
- Kout, lameness score (PM dogs, mean and range): 0.509 [0.14, 0.99] h^-1
- Kout, vertical force (PM dogs, mean and range): 8.47 [5.09, 9.99] h^-1
- IC50, lameness score [1]: 785.8 [579.4, 916.1] ng/mL
- IC50, vertical force [1]: 325.1 [235.3, 397.6] ng/mL
